Tests used:
Assay in all cases: relative viability (nuclei count vs DMSO), 5 days (fraction); higher = more cells survive
[1] = compound: CC[C@@H](C)CNCC(=O)N1CCC2=C([C@@H]1COC3=CC=CC(=C3)C)C=CS2 [RU-SKI 43] + O=C(c1cc(Cc2n[nH]c(=O)c3ccccc23)ccc1F)N1CCN(C(=O)C2CC2)CC1 [Olaparib] (partner 8 µM)
In short: (§1)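 Lung cancer cell lines, seeded in 1536-well plates, were treated the following day by pin tool with a single drug or with five library-drug doses (not always all listed) in √10 steps on top of a fixed anchor-drug dose. Cells were fixed and nuclei stained in one step after 5 days, and nuclei were counted. Relative viability is the nuclei count for treated wells divided by that for vehicle wells, reported as medians of duplicate plates.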

[2] = compound: CCc1c2c(nc3ccc(OC(=O)N4CCC(N5CCCCC5)CC4)cc13)-c1cc3c(c(=O)n1C2)COC(=O)[C@]3(O)CC [Irinotecan] + Cc1nc(Nc2ncc(C(=O)Nc3c(C)cccc3Cl)s2)cc(N2CCN(CCO)CC2)n1 [Dasatinib] (partner 0.075 µM)
In short: as §1

[3] = compound: CCc1c2c(nc3ccc(OC(=O)N4CCC(N5CCCCC5)CC4)cc13)-c1cc3c(c(=O)n1C2)COC(=O)[C@]3(O)CC [Irinotecan] + NC(=O)Nc1cc(-c2cccc(F)c2)sc1C(=O)N[C@H]1CCCNC1 [AZD7762] (partner 0.2 µM)
In short: as §1

[4] = compound: CCc1c2c(nc3ccc(OC(=O)N4CCC(N5CCCCC5)CC4)cc13)-c1cc3c(c(=O)n1C2)COC(=O)[C@]3(O)CC [Irinotecan] + CS(=O)(=O)N1CCN(Cc2cc3nc(-c4cccc5[nH]ncc45)nc(N4CCOCC4)c3s2)CC1 [Pictilisib] (partner 1 µM)
In short: as §1

Row | Cell Line | relative viability ([1]; first compound 0.1 µM) | relative viability ([1]; first compound 0.3162 µM) | relative viability ([1]; first compound 1 µM) | relative viability ([1]; first compound 3.162 µM) | relative viability ([1]; first compound 10 µM) | relative viability ([2]; first compound 0.6325 µM) | relative viability ([2]; first compound 2 µM) | relative viability ([2]; first compound 6.325 µM) | relative viability ([2]; first compound 20 µM) | relative viability ([3]; first compound 0.6325 µM) | relative viability ([3]; first compound 2 µM) | relative viability ([3]; first compound 6.325 µM) | relative viability ([3]; first compound 20 µM) | relative viability ([4]; first compound 0.6325 µM) | relative viability ([4]; first compound 2 µM) | relative viability ([4]; first compound 6.325 µM) | relative viability ([4]; first compound 20 µM)
1 | NCI-H2087 | 0.481 | 0.63 | 0.669 | 0.616 | 0.559 | 0.392 | 0.535 | 0.19 | 0.196 | 0.586 | 0.387 | 0.242 | 0.226 | 0.311 | 0.288 | 0.233 | 0.264
2 | NCI-H2126 | 0.903 | 1.07 | 0.936 | 0.845 | 0.865 | – | 0.55 | 0.41 | 0.135 | 0.618 | 0.889 | 0.65 | 0.302 | – | 0.41 | 0.286 | 0.335
3 | NCI-H2170 | 0.587 | 0.683 | 0.599 | 0.61 | 0.59 | 0.563 | 0.663 | 0.281 | 0.164 | 0.649 | 0.562 | 0.173 | 0.133 | 0.32 | 0.242 | 0.224 | 0.157
4 | NCI-H2347 | 0.547 | 0.499 | 0.553 | 0.504 | 0.569 | 0.307 | 0.242 | 0.245 | 0.372 | 0.609 | 0.654 | 0.48 | 0.372 | 0.542 | 0.355 | 0.36 | 0.461
5 | NCI-H2405 | 0.835 | 0.885 | 0.905 | 0.855 | 0.842 | – | 0.218 | 0.198 | 0.18 | – | 0.765 | 0.298 | 0.197 | – | 0.477 | 0.326 | 0.132
6 | NCI-H3122 | 0.623 | 0.64 | 0.663 | 0.649 | 0.579 | 0.142 | 0.619 | 0.149 | 0.117 | 0.941 | 0.34 | 0.145 | 0.139 | 0.514 | 0.349 | 0.202 | 0.174
7 | PC-3 [JPC-3] | 1.09 | 1.3 | 1.2 | 1.2 | 1.06 | 0.882 | 0.915 | 0.693 | 0.345 | 0.465 | 0.864 | 0.463 | 0.398 | 0.309 | 0.535 | 0.315 | 0.344
8 | PC-14 | 0.22 | 0.174 | 0.294 | 0.263 | 0.401 | 0.273 | 0.244 | 0.127 | 0.088 | 0.306 | 0.431 | 0.232 | 0.199 | 0.652 | 0.425 | 0.257 | 0.194
9 | RERF-LC-KJ | 0.818 | 1.04 | 0.914 | 0.876 | 0.811 | 0.805 | 0.725 | 0.449 | 0.158 | 0.55 | 1.03 | 0.568 | 0.277 | 0.516 | 0.422 | 0.455 | 0.418
